# Measurements as given in patent US20240400564A1 (Syndax Pharmaceuticals, Inc, priority 2021, published 2024).
# Where two headings read alike, the source gives them in different places.
# Experiments:
# hERG = hERG (Homo sapiens, UniProt Q12809); assay: Patch clamp assay (hERG tail currents, whole-cell)
# [1] = tested on: MLLr leukemia cell line MV4-11; assay: Cell proliferation assay MV4;11 (CellTiter-Glo, 72 hours); type: cell-based; conditions: Homo sapiens, read-out: MV4
# Summary of the method: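 Cells in IMDM/10% FBS, seeded from a 15,000 cells/ml suspension, were exposed for 72 h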
# [2] = MV4-11 cells, 72 hours, CellTiter-Glo, 11 IC50
# hERG, sequence (Q12809 whole entry): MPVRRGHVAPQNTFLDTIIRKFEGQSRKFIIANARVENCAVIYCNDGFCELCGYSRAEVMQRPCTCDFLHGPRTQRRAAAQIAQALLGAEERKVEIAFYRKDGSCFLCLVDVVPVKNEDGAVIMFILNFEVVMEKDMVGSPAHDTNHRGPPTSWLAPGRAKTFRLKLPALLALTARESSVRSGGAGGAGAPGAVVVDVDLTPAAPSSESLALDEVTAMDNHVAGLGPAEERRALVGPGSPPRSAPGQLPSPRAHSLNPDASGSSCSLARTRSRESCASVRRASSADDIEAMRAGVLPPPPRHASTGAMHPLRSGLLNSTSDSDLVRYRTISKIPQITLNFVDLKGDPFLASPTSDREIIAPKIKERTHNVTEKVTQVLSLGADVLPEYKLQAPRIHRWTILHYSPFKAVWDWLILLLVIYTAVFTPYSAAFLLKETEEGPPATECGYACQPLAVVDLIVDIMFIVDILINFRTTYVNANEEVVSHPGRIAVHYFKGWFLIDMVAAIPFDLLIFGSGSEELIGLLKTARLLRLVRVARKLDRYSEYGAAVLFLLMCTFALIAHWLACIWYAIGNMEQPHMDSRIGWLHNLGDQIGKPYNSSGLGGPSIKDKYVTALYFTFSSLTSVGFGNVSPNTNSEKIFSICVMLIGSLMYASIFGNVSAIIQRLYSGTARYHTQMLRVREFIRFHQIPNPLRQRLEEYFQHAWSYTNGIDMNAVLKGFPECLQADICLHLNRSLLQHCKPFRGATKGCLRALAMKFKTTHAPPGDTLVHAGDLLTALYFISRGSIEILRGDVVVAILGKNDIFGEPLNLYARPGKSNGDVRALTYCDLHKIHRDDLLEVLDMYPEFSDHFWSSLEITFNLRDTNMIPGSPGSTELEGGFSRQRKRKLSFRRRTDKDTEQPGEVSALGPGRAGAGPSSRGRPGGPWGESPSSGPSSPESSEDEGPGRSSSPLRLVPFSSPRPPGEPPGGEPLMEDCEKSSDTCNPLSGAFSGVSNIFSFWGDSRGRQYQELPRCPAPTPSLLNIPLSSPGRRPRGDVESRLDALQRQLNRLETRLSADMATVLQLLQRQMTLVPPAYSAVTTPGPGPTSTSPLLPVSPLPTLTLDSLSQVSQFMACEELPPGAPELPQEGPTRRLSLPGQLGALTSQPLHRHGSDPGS
Compound,hERG % Remaining (hERG; 30 μM compound),"IC50 [1, 2] [nM]",hERG % Remaining (hERG; 10 μM compound),"IC50 ([1]; MV4-11, 72 h, 11 IC50 (nM)) [nM]"
"Cc1c(S(=O)(=O)N[C@@H]2CC[C@@H](CN3CCC4(CC3)CN(c3ncncc3Oc3ccc(F)cc3C(=O)N(CC(F)F)C(C)C)C4)OC2)cnn1C [Example 104, N-(2,2-Difluoroethyl)-2-((4-(7-(((2S,5R)-5-((1,5-dimethyl-1H-pyrazole)-4-sulfonamido)tetrahydro-2H-pyran-2-yl)methyl)-2,7-diazaspiro[3.5]nonan-2-yl)pyrimidin-5-yl)oxy)-5-fluoro-N-isopropylbenzamide]",+++ (≥66%),< 100,,
"CCN(C(=O)c1cc(F)ccc1Oc1cncnc1N1CC2(CCN(C[C@@H]3CC[C@@H](NS(=O)(=O)c4csc(C)n4)CO3)CC2)C1)C(C)C [Example 71, N-Ethyl-5-fluoro-N-isopropyl-2-((4-(7-(((2S,5R)-5-((2-methylthiazole)-4-sulfonamido)tetrahydro-2H-pyran-2-yl)methyl)-2,7-diazaspiro[3.5]nonan-2-yl)pyrimidin-5-yl)oxy)benzamide]",++ (233% and ≤66%),< 100,+++ (≥66%),
"CCN(C(=O)c1cc(F)ccc1Oc1cncnc1N1CC2(CCN(C[C@@H]3CC[C@@H](NS(=O)(=O)c4ccc(=O)[nH]c4C)CO3)CC2)C1)C(C)C [Example 217, N-Ethyl-5-fluoro-N-isopropyl-2-((4-(7-(((2S,5R)-5-((2-methyl-6-oxo-1,6-dihydropyridine)-3-sulfonamido)tetrahydro-2H-pyran-2-yl)methyl)-2,7-diazaspiro[3.5]nonan-2-yl)pyrimidin-5-yl)oxy)benzamide]",+++ (≥66%),< 100,,
"CC(C)N(C(=O)c1cc(F)ccc1Oc1cncnc1N1CC2(CCN(C[C@@H]3CC[C@@H](NS(=O)(=O)c4cnn(C)c4)CO3)CC2)C1)C1CC(F)(F)C1 [Example 156, N-(3,3-Difluorocyclobutyl)-5-fluoro-N-isopropyl-2-((4-(7-(((2S,5R)-5-((1-methyl-1H-pyrazole)-4-sulfonamido)tetrahydro-2H-pyran-2-yl)methyl)-2,7-diazaspiro[3.5]nonan-2-yl)pyrimidin-5-yl)oxy)benzamide]",+++ (≥66%),< 100,,
"CCN(C(=O)c1cc(F)ccc1Oc1cncnc1N1CC2(CCN(C[C@@H]3CC[C@@H](NS(=O)(=O)c4cnc(C)o4)CO3)CC2)C1)C(C)C [Example 72, N-Ethyl-5-fluoro-N-isopropyl-2-((4-(7-(((2S,5R)-5-((2-methyloxazole)-5-sulfonamido)tetrahydro-2H-pyran-2-yl)methyl)-2,7-diazaspiro[3.5]nonan-2-yl)pyrimidin-5-yl)oxy)benzamide]",+ (<33%),< 100,++ (233% and ≤66%),
"CCS(=O)(=NC)N[C@@H]1CC[C@@H](CN2CCC3(CC2)CN(c2ncncc2Oc2ccc(F)cc2C(=O)N(C(C)C)C(C)C)C3)OC1 (stereo partly drawn) [Example 231, 5-Fluoro-N,N-diisopropyl-2-((4-(7-(((2S,5R)-5-(N′-methylethylsulfonoamidimidamido)tetrahydro-2H-pyran-2-yl)methyl)-2,7-diazaspiro[3.5]nonan-2-yl)pyrimidin-5-yl)oxy)benzamide]",+++ (≥66%),,,< 100
"CC(C)N(CC(F)F)C(=O)c1cc(F)ccc1Oc1cncnc1N1CC2(CCN(C[C@@H]3CC[C@@H](NS(=O)(=O)c4ccn(C)n4)CO3)CC2)C1 [Example 103, N-(2,2-Difluoroethyl)-5-fluoro-N-isopropyl-2-((4-(7-(((2S,5R)-5-((1-methyl-1H-pyrazole)-3-sulfonamido)tetrahydro-2H-pyran-2-yl)methyl)-2,7-diazaspiro[3.5]nonan-2-yl)pyrimidin-5-yl)oxy)benzamide]",+++ (≥66%),< 100,,
